Values of other authors, collected in patent US20190144909A1, “METHODS OF MODULATING BCKDH” (NESTEC S.A., priority 2016, published 2019).
“Also recorded” adds a separate entry of the source. Where two headings read alike, the source gives them in different places.

Tests used:
BCKDH kinase = conditions: Shimomura et al. (2006) J. Nutr. 136: 250S-253S
[1] = test system: branched-chain alpha-keto acid dehydrogenase E1 A subunit (BCKDHA)
[2] = test system: branched-chain alpha-keto acid dehydrogenase kinase (BCKDH kinase)
[3] = test system: branched-chain alpha-keto acid dehydrogenase E1 B subunit (BCKDHB)
[4] = BCKDHA, Table 1b, from Comparative Toxicogenomics Database
[5] = BCKDH kinase, Table 2, from Comparative Toxicogenomics Database
[6] = BCKDHB, Table 1a, from Comparative Toxicogenomics Database

CC(C)CC(Cl)C(=O)O (stereo not drawn) [α-chloroisocaproic acid]
inhibitor of BCKDH kinase (BCKDH kinase): most potent known inhibitor of BCKDH kinase

O=c1[nH]cc(F)c(=O)[nH]1 [Fluorouracil, reference compound]
Interaction Actions [1, 4]: affects expression

C=CC(=C)Cl [Chloroprene]
Interaction Actions [1]: increases expression

CC(C)CC(=O)C(=O)O [α-ketoisocaproic acid]
inhibitor of BCKDH kinase (BCKDH kinase): known physiological inhibitor of BCKDH kinase

CC(C)(Oc1ccc(Cl)cc1)C(=O)O [Clofibric Acid]
Interaction Actions [2, 5]: affects cotreatment/; also recorded: affects expression

[Cu] [Copper]
Interaction Actions [2]: affects binding/; also recorded: decreases expression

O=C(NN=C1CCCCC1)C(=O)NN=C1CCCCC1 [Cuprizone, reference compound]
Interaction Actions [3]: increases expression

CCCCOC(=O)c1ccccc1C(=O)OCCCC [Dibutyl Phthalate]
Interaction Actions [2, 5]: decreases expression

OC[C@H]1O[C@@H](Oc2ccc(O)cc2)[C@H](O)[C@@H](O)[C@@H]1O [Arbutin]
Interaction Actions [2, 5]: decreases expression

CCN(CC)N=O [Diethylnitrosamine]
Interaction Actions [3]: increases expression | Interaction Actions [2]: affects cotreatment/; also recorded: affects expression

Clc1cc2c(cc1Cl)Oc1cc(Cl)c(Cl)cc1O2
Interaction Actions [3]: affects expression | Interaction Actions [1]: affects expression; also recorded: affects cotreatment/; also recorded: increases expression | Interaction Actions [2]: affects reaction/; also recorded: decreases expression; also recorded: affects expression

Cl.N [Ammonium Chloride]
Interaction Actions [3]: affects expression | Interaction Actions [1]: affects expression | Interaction Actions [2]: affects expression

CN[C@H](CC(C)C)C(=O)N[C@H]1C(=O)N[C@@H](CC(N)=O)C(=O)N[C@H]2C(=O)N[C@H]3C(=O)N[C@H](C(=O)N[C@H](C(=O)O)c4cc(O)cc(O)c4-c4cc3ccc4O)[C@H](O)c3ccc(c(Cl)c3)Oc3cc2cc(c3O[C@@H]2O[C@H](CO)[C@@H](O)[C@H](O)[C@H]2O[C@H]2C[C@](C)(N)[C@H](O)[C@H](C)O2)Oc2ccc(cc2Cl)[C@H]1O [Vancomycin, reference compound]
Interaction Actions [3]: increases expression | Interaction Actions [1]: increases expression

C[C@@H]1Cc2c(Cl)cc(C(=O)N[C@@H](Cc3ccccc3)C(=O)O)c(O)c2C(=O)O1 [Ochratoxin A]
Interaction Actions [2]: decreases expression

OO [Hydrogen Peroxide]
Interaction Actions [2, 5]: affects expression

C/C=C(/C)C(=O)O[C@H]1C(C)=C2[C@H]([C@@H]1OC(=O)CCCCCCC)[C@@](C)(OC(C)=O)C[C@H](OC(=O)CCC)[C@@]1(O)[C@H]2OC(=O)[C@@]1(C)O [Thapsigargin, reference compound]
Interaction Actions [2, 5]: decreases expression

C#CC1(O)CC[C@H]2[C@@H]3C(O)C=C4CC(O)CC[C@]4(C)[C@H]3CC[C@@]21C (stereo partly shown) [17-ethynyl-5-androstene-3,7,17-triol]
Interaction Actions [1, 4]: affects binding

CC12CC1(C)C(=O)N(c1cc(Cl)cc(Cl)c1)C2=O (stereo not shown) [Procymidone]
Interaction Actions [2, 5]: decreases expression

c1cc2ccc3ccc4ccc5cccc6c(c1)c2c3c4c56 [1,12-benzoperylene]
Interaction Actions [1]: increases expression

[Na+].[Na+].[O]=[Cr](=[O])([O-])[O][Cr](=[O])(=[O])[O-] [Sodium bichromate]
Interaction Actions [2]: decreases expression

CCCC(CCC)C(=O)O [Valproic Acid, reference compound]
Interaction Actions [3, 6]: affects expression; also recorded: increases expression | Interaction Actions [1, 4]: affects expression | Interaction Actions [2, 5]: affects expression

CC[C@@]1(O)C(=O)OCc2c1cc1n(c2=O)Cc2cc3c(CN(C)C)c(O)ccc3nc2-1 [Topotecan, reference compound]
Interaction Actions [1, 4]: affects response

CCNc1nc(Cl)nc(NC(C)C)n1 [Atrazine]
Interaction Actions [1, 4]: increases expression | Interaction Actions [2, 5]: decreases expression

c1ccc2c(c1)cc1ccc3cccc4ccc2c1c34 [Benzo(a)pyrene]
Interaction Actions [3, 6]: affects expression/; also recorded: affects reaction; also recorded: increases expression

Tunicamycin [reference compound]
Interaction Actions [1]: increases expression | Interaction Actions [2]: decreases expression

c1ccoc1 [Furan]
Interaction Actions [1]: affects binding

potassium chromate(VI)
Interaction Actions [3]: increases expression

[Cl-].[Cl-].[Co+2] [Cobaltous chloride]
Interaction Actions [2]: decreases expression

CC(=O)Nc1ccc(O)cc1 [Acetaminophen, reference compound]
Interaction Actions [1, 4]: affects expression; also recorded: increases expression | Interaction Actions [2, 5]: affects expression

Cc1cccc(Nc2cc(Cl)nc(SCC(=O)O)n2)c1C [pirinixic acid, reference compound]
Interaction Actions [3, 6]: increases expression | Interaction Actions [1, 4]: increases expression

C=CC1(C)OC(=O)N(c2cc(Cl)cc(Cl)c2)C1=O (stereo not shown) [Vinclozolin]
Interaction Actions [1, 4]: increases expression

[CH3][Hg][Cl] [Methylmercuric chloride]
Interaction Actions [3]: increases expression | Interaction Actions [1]: increases expression

CNC1(c2ccccc2Cl)CCCCC1=O (stereo not shown) [Ketamine, reference compound]
Interaction Actions [1]: increases expression

CC(C)(c1ccc(O)cc1)c1ccc(O)cc1 [Bisphenol A]
Interaction Actions [1, 4]: increases expression | Interaction Actions [2, 5]: affects expression

ClC(Cl)(Cl)Cl [Carbon Tetrachloride]
Interaction Actions [1]: increases expression

NC(=O)N1c2ccccc2C=Cc2ccccc21 [Carbamazepine, reference compound]
Interaction Actions [1, 4]: affects expression

COCC(=O)O [Methoxyacetic acid]
Interaction Actions [2, 5]: affects expression

OCl [Hypochlorous Acid]
Interaction Actions [2, 5]: decreases expression
